Source: patent US9487479B2, “Small molecule inhibitors of N-terminus activation of the androgen receptor” (The University of British Columbia, priority 2008, dated 2016)

How the values were obtained:
[1] = system: PC3 cells; experiment: Proliferation of PC3 cells (BrdU incorporation); type: cell-based, human; conditions: 5 μg/mL
Excerpt: LNCaP cells were employed initially for all experiments because they are well-differentiated human prostate cancer cells in which ligand-independent activation of the AR by FSK has been characterized (Nazareth et al 1996 J. Biol. Chem. 271, 19900-19907; and Sadar 1999 J. Biol. Chem. 274, 7777-7783). LNCaP cells express endogenous AR and secrete prostate-specific antigen (PSA) (Horoszewicz et al 1983 Cancer Res. 43, 1809-1818). LNCaP cells can be grown either as monolayers in cell culture or as tumors in the well-characterized xenograft model that progresses to androgen independence in castrated hosts (Sato et al 1996 J. Steroid Biochem. Mol. Biol. 58, 139-146; Gleave et al 1991 Cancer Res. 51, 3753-3761; Sato et al 1997 Cancer Res. 57, 1584-1589; and Sadar et al 2002 Mol. Cancer Ther. 1(8), 629-637). […] Small molecules that specifically target the AR-NTD should have no effect on PC3 cells. This means that they should not alter the proliferation of PC3 cells if they specifically block the AR to mediate their inhibitory effects. R1881 was employed since it is stable and avoids problems associated with the labile physiological ligand dihydrotestosterone (DHT). Reporter specificity may be determined using several alternative reporter gene constructs. […]
BrdU incorporation was measured 3 days later to indicate changes in proliferation in response to androgen (see FIG. 3B).

[2] = Animal body weight during the LNCaP xenograft experiment; type: in vivo, mice
Method: The subcutaneous xenograft model was used to test whether sintokamides that inhibit activation of the androgen receptor in vitro have any effect on these tumors. CB3.1 was tested in vivo using the LNCaP subcutaneous xenograft model. […] LNCaP human prostate cancer cells express endogenous androgen receptor (AR) and prostate-specific antigen (PSA), and progress to androgen independence in castrated hosts. LNCaP cells (10^6/ml) were implanted subcutaneously into NOD-SCID male mice that were at least 8 weeks in age. The cells were suspended in 75 μl of RPMI medium 1640 (5% FBS) with 75 μl of Matrigel and injected into the flank region of the host under anesthesia. LNCaP cells were implanted subcutaneously into NOD-SCID male mice and the animals were castrated when the tumors were approximately 100 mm^3 (mean=[…]; n=18) and randomized into two groups. One week after castration the animals were treated every 3 days with an intratumoral dose of 30 mg/kg body weight of CB3.1 or matching volume of vehicle (control, DMSO). […] Fifteen days after the first injection of CB3.1, the tumors were 111.81%±38.12 the tumor volume on the day of the 1st injection. While 15 days after injection of DMSO, the tumors were 180.27%±111.67 the tumor volume on the day of the 1st injection. Serum PSA provides an indication of prognosis. For animals receiving CB3.1, serum PSA was 98.47%±170.51 on day 15 after the 1st injection. […] Tumor volume and serum PSA values were consistent with CB3.1 reducing tumor burden and serum PSA compared to vehicle-treated animals.

[3] = target: T1, glucocorticoid receptor (GR) (Homo sapiens, UniProt P04150); experiment: GRE-luciferase reporter assay in LNCaP cells transfected with hGR; type: cell-based; conditions: 5 μg/ml, dexamethasone 10 nM, 24 h
T1 construct: Cells were co-transfected with expression plasmids for full-length hGR and PRβ; expressed in transfected cells; host or cells: LNCaP cells
T1 sequence (P04150 1-777): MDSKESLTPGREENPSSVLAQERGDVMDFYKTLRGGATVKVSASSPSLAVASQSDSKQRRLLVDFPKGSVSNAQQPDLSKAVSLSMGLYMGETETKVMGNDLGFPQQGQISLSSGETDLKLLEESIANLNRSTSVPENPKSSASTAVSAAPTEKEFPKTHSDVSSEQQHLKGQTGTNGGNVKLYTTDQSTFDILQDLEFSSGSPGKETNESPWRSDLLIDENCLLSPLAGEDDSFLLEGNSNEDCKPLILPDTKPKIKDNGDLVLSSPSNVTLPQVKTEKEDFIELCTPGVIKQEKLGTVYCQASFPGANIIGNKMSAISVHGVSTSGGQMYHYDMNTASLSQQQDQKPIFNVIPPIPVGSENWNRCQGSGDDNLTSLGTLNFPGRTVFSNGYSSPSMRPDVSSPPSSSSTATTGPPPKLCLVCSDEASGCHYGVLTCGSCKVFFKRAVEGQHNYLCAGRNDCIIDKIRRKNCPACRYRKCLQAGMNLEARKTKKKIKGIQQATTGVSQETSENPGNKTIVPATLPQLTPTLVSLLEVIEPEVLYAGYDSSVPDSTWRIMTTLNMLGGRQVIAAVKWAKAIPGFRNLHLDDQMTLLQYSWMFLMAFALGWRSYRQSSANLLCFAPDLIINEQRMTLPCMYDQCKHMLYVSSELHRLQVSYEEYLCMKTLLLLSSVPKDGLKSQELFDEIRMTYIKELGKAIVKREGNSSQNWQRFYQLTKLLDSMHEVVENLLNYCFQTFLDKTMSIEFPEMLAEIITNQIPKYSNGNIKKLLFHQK
Excerpt: White bars represent no steroid (ethanol control). Wherein glucocorticoid receptor (GR) and progesterone receptor (PR).
Sequence similarities of amino acids in the AR with related human steroid receptors (glucocorticoid receptor (GR) and progesterone receptor (PR)) are significant in some domains such as the DNA-binding-domain (DBD). Although the AR-NTD shares less than 15% homology with the PR and GR, these receptors do interact with some of the same proteins such as SRC-1 (steroid receptor coactivator-1). Therefore, reporter gene assays were used to determine if candidate compounds that block AR activity have any effect on GR and PR transcriptional activity. Cells were co-transfected with expression plasmids for full-length hGR and PRβ and the relative reporter (i.e., pGR-Luc or PRE-E1b-Luc reporters). Cells were then treated with ethanol vehicle, dexamethasone (GR), 4-pregnene-3,20 dione (progesterone) (PR) followed by measurement of luciferase activity.

CCC(=O)N[C@H](C[C@H](C)C(Cl)(Cl)Cl)C(=O)N1C(=O)C=C(OC)[C@@H]1C[C@H](C)C(Cl)Cl [CB3.1, Sintokamide A]
proliferation of PC3 cells (BrdU incorporation) [1]: did not block proliferation | change in animal body weight ([2]; duration of the experiment, intratumoral 30 mg/kg every 3 days): No change in animal body weight | animal body weight, finish ([2]; finish of experiment, intratumoral 30 mg/kg every 3 days): 25.0±1.4 grams | animal body weight, start ([2]; start of experiment): 24.6±1.1 grams | GRE-luciferase activity in response to ligand [3]: did not inhibit
